# Results reported in the supplement of paper PMC11208160.
# Experiment: recombinant UMI read abundance after kanamycin selection (control-corrected) (log10(CPM+1)); higher = more efficient recombination; extreme values may be limits of the assay; sequences stand for … in AGTGCAGAGAAAATCGGCCAGTTTTCTCTGCCTGCAGTCCGCATGCCGTGGGACCCCTTGGGTTCTAACCTGTTGCCTAGATTTATGCAGCGGACTGCCTTTCTCCCAAAGTGATAAACCGG…AGGTTGGTTTCACT; site = the 11-nt donor
# Outline: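 Two replicates each of selected and unselected plating were used in this pooled Escherichia coli screen of donor and donor-binding-loop pairs for the IS621 bridge recombinase. Selection was with IPTG (0.07 mM) and kanamycin. Counts of recombinant UMIs, amplified across the donor–target junction, were converted to CPM, averaged, scaled by control-derived factors and reported as log10(CPM+1).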
# 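Note: IS621 bridge recombinase in Escherichia coli cells against a fixed T5 target plasmid.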
row,Sequence,recombinant UMI read abundance (log10)
1,TGTTCCCCATGGACCGGTTTTCCCGGTAATCCGTATTTGAA (site TGTTCCCCTTC),0.011
2,TGTTCCCCATGGACCGGTTTTCCCGGTAATCCGTATTTGAA (site TGTTCCCCTTG),0
3,TGTTCCCCATGGACCGGTTTTCCCGGTAATCCGTATTTGAA (site TGTTCCCCTTT),0.0201
4,TGTTCCCCATGGACCGGTTTTCCCGGTAATCCGTATTTGGA (site TGTTCCCCTTA),0.0182
5,TGTTCCCCATGGACCGGTTTTCCCGGTAATCCGTATTTGGA (site TGTTCCCCTTC),0.128
6,TGTTCCCCATGGACCGGTTTTCCCGGTAATCCGTATTTGGA (site TGTTCCCCTTG),0.00301
7,TGTTCCCCATGGACCGGTTTTCCCGGTAATCCGTATTTGGA (site TGTTCCCCTTT),0.02
8,TGTTCCCCATGGACCGGTTTTCCCGGTAATCCGTATTTGTC (site TGTTCCCCTAA),0.0126
9,TGTTCCCCATGGACCGGTTTTCCCGGTAATCCGTATTTGTC (site TGTTCCCCTCA),0.00896
10,TGTTCCCCATGGACCGGTTTTCCCGGTAATCCGTATTTGTC (site TGTTCCCCTGA),1.16
11,TGTTCCCCATGGACCGGTTTTCCCGGTAATCCGTATTTGTC (site TGTTCCCCTTA),0.0152
12,TGTTCCTCATGGACCGGTTTTCCCGGTAATCCGTATTTGTC (site TGTTCCTCTGA),0.553
13,TGTTCGGCATGGACCGGTTTTCCCGGTAATCCGTATTTGAC (site TGTTCGGCTGT),0.323
14,TGTTCTTCATGGACCGGTTTTCCCGGTAATCCGTATTTGCC (site TGTTCTTCTGG),1.21
15,TGTTGATCATGGACCGGTTTTCCCGGTAATCCGTATTTGAG (site TGTTGATCTCT),1.22
16,TGTTTGGCATGGACCGGTTTTCCCGGTAATCCGTATTTGTG (site TATTTGGCTCA),0.0286
17,TGTTTGGCATGGACCGGTTTTCCCGGTAATCCGTATTTGTG (site TCTTTGGCTCA),0.00613
18,TGTTTGGCATGGACCGGTTTTCCCGGTAATCCGTATTTGTG (site TGTTTGGCTCA),0.161
19,TGTTTGGCATGGACCGGTTTTCCCGGTAATCCGTATTTGTG (site TTTTTGGCTCA),0.0036
20,TTAAATCCATGGACCGGTTTTCCCGGTAATCCGTATTTGGT (site TTAAATCCTAC),0.0199
21,TTAATACCATGGACCGGTTTTCCCGGTAATCCGTATTTGAG (site TTAATACCTCT),0.0468
22,TTAATTTCATGGACCGGTTTTCCCGGTAATCCGTATTTGCA (site TTAATTTCTTG),0.69
23,TTACGTCCATGGACCGGTTTTCCCGGTAATCCGTATTTGCA (site TTACGTCCTTG),0.977
24,TTACTACCATGGACCGGTTTTCCCGGTAATCCGTATTTGCG (site TTACTACCTCG),0.0128
25,TTAGAACCATGGACCGGTTTTCCCGGTAATCCGTATTTGCA (site TTAGAACCTTG),0

row,Sequence,recombinant UMI read abundance (log10)
1,TTAGCCGCATGGACCGGTTTTCCCGGTAATCCGTATTTGAC (site TTAGCCGCTGT),2.72
2,TTAGGATCATGGACCGGTTTTCCCGGTAATCCGTATTTGAT (site TTAGGATCTAT),2.58
3,TTAGTTCCATGGACCGGTTTTCCCGGTAATCCGTATTTGTT (site TTAGTTCCTAA),0.183
4,TTAGTTGCATGGACCGGTTTTCCCGGTAATCCGTATTTGTG (site TTAGATGCTCA),0.0164
5,TTAGTTGCATGGACCGGTTTTCCCGGTAATCCGTATTTGTG (site TTAGCTGCTCA),0.0133
6,TTAGTTGCATGGACCGGTTTTCCCGGTAATCCGTATTTGTG (site TTAGGTGCTCA),0.0142
7,TTAGTTGCATGGACCGGTTTTCCCGGTAATCCGTATTTGTG (site TTAGTTGCTCA),1.15
8,TTATAGGCATGGACCGGTTTTCCCGGTAATCCGTATTTGGA (site TTATAGGCTTC),0.419
9,TTATGAGCATGGACCGGTTTTCCCGGTAATCCGTATTTGTC (site TTATGAGCTGA),2.45
10,TTATGTGCATGGACCGGTTTTCCCGGTAATCCGTATTTGCT (site TTATGTGCTAG),2.36
11,TTATTACCATGGACCGGTTTTCCCGGTAATCCGTATTTGAG (site TTATTACCTCT),0.00691
12,TTATTTGCATGGACCGGTTTTCCCGGTAATCCGTATTTGTA (site TTATTTGCTTA),0.103
13,TTCAACTCATGGACCGGTTTTCCCGGTAATCCGTATTTGAC (site TTCAACTCTGT),0
14,TTCAATTCATGGACCGGTTTTCCCGGTAATCCGTATTTGGG (site TTCAATTCTCC),0
15,TTCCACCCATGGACCGGTTTTCCCGGTAATCCGTATTTGTA (site TTCCACCCTTA),0.00477
16,TTCCAGGCATGGACCGGTTTTCCCGGTAATCCGTATTTGAG (site TTCCAGGCTCT),0.0112
17,TTCCCGCCATGGACCGGTTTTCCCGGTAATCCGTATTTGAA (site TTCCCGCCTTT),0.0206
18,TTCCCTTCATGGACCGGTTTTCCCGGTAATCCGTATTTGTA (site TTCCCTTCTTA),0
19,TTCCGAACATGGACCGGTTTTCCCGGTAATCCGTATTTGGT (site TTCCGAACTAC),0.00692
20,TTCCTGGCATGGACCGGTTTTCCCGGTAATCCGTATTTGAG (site TTCCTGGCTCT),0.00387
21,TTCCTGTCATGGACCGGTTTTCCCGGTAATCCGTATTTGAA (site TTCCTGTCTTT),0.0685
22,TTCGCCACATGGACCGGTTTTCCCGGTAATCCGTATTTGAG (site TTCGCCACTCT),0
23,TTCGCTACATGGACCGGTTTTCCCGGTAATCCGTATTTGGC (site TTCGCTACTGC),0
24,TTCGGATCATGGACCGGTTTTCCCGGTAATCCGTATTTGCT (site TTCGGATCTAG),0
25,TTCGGGCCATGGACCGGTTTTCCCGGTAATCCGTATTTGCC (site TTCGGGCCTGG),0

row,Sequence,recombinant UMI read abundance (log10)
1,TTCGTATCATGGACCGGTTTTCCCGGTAATCCGTATTTGAC (site CTAGTATCTGT),0
2,TTCGTATCATGGACCGGTTTTCCCGGTAATCCGTATTTGAC (site TTCGTATCTGT),0
3,TTCTGAGCATGGACCGGTTTTCCCGGTAATCCGTATTTGCT (site TTCTGAGCTAG),0.802
4,TTCTTCGCATGGACCGGTTTTCCCGGTAATCCGTATTTGCG (site TTCTTCGCTCG),0.00387
5,TTGAATCCATGGACCGGTTTTCCCGGTAATCCGTATTTGTT (site CGGAATCCTAA),0
6,TTGAATCCATGGACCGGTTTTCCCGGTAATCCGTATTTGTT (site TTGAATCCTAA),0.901
7,TTGAATTCATGGACCGGTTTTCCCGGTAATCCGTATTTGTT (site TTGAATTCTAA),0
8,TTGCACGCATGGACCGGTTTTCCCGGTAATCCGTATTTGGT (site TTGCACGCTAC),0.647
9,TTGCCGTCATGGACCGGTTTTCCCGGTAATCCGTATTTGGT (site TTGCCGTCTAC),0.144
10,TTGCCTTCATGGACCGGTTTTCCCGGTAATCCGTATTTGGT (site TAGCCTTCTAC),0.0133
11,TTGCCTTCATGGACCGGTTTTCCCGGTAATCCGTATTTGGT (site TCGCCTTCTAC),0.00778
12,TTGCCTTCATGGACCGGTTTTCCCGGTAATCCGTATTTGGT (site TGGCCTTCTAC),0.0098
13,TTGCCTTCATGGACCGGTTTTCCCGGTAATCCGTATTTGGT (site TTGCCTTCTAC),0.00638
14,TTGCGGGCATGGACCGGTTTTCCCGGTAATCCGTATTTGGA (site TTGCGGGCTTC),0.00996
15,TTGCGGGCATGGACCGGTTTTCCCGGTAATCCGTATTTGGG (site TTGCGGGCTCC),0.00376
16,TTGCGTTCATGGACCGGTTTTCCCGGTAATCCGTATTTGTC (site TTGCGTTCTGA),0
17,TTGCTGGCATGGACCGGTTTTCCCGGTAATCCGTATTTGAG (site TTGCTGGCTCT),0
18,TTGCTTACATGGACCGGTTTTCCCGGTAATCCGTATTTGAC (site TTGCTTACTGT),0
19,TTGGAATCATGGACCGGTTTTCCCGGTAATCCGTATTTGCG (site TAGGAATCTCG),1.81
20,TTGGAATCATGGACCGGTTTTCCCGGTAATCCGTATTTGCG (site TCGGAATCTCG),0.968
21,TTGGAATCATGGACCGGTTTTCCCGGTAATCCGTATTTGCG (site TGGGAATCTCG),0.00536
22,TTGGAATCATGGACCGGTTTTCCCGGTAATCCGTATTTGCG (site TTGGAATCTCG),2.27
23,TTGGCAACATGGACCGGTTTTCCCGGTAATCCGTATTTGCT (site TTGGCAACTAG),0.0704
24,TTGGCTGCATGGACCGGTTTTCCCGGTAATCCGTATTTGTG (site TTAGCTGCTCA),0.0254
25,TTGGCTGCATGGACCGGTTTTCCCGGTAATCCGTATTTGTG (site TTCGCTGCTCA),0.0142
